ChEMBL document CHEMBL1201862, “PubChem BioAssay data set” (2004)
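Results reflect a 48-hour exposure of cells in 96-well plates to compound at five concentrations. At the GI50, growth is halved.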 Active and inactive are the calls of the source. Rule as the data show it: active = GI50 up to about 1.1 µM and inactive = higher.

Assays:
Experiment in all cases: inhibition of tumour cell growth, NCI panel, 48 h
COLO 205 = system: COLO 205
SNB-19 = system: SNB-19
NCI-H226 = system: NCI-H226
EKVX = system: EKVX
Malme-3M = system: Malme-3M
OVCAR-5 = system: OVCAR-5
HCT-15 = system: HCT-15
IGROV-1 = system: IGROV-1
MDA-MB-231 = system: MDA-MB-231
RPMI-8226 = system: RPMI-8226
NCI-H460 = system: NCI-H460
LOX IMVI = system: LOX IMVI
CAKI-1 = system: CAKI-1
A549 = system: A549
SNB-75 = system: SNB-75
HL-60 = system: HL-60
SF-295 = system: SF-295
NCI-H522 = system: NCI-H522
OVCAR-8 = system: OVCAR-8
SF-268 = system: SF-268

SMILES | GI50 (COLO 205) | GI50 (SNB-19) | GI50 (NCI-H226) | GI50 (EKVX) | GI50 (Malme-3M) | GI50 (OVCAR-5) | GI50 (HCT-15) [µM] | GI50 (IGROV-1) | GI50 (MDA-MB-231) | GI50 (RPMI-8226) | GI50 (NCI-H460) | GI50 (LOX IMVI) | GI50 (CAKI-1) | GI50 (A549) | GI50 (SNB-75) | GI50 (HL-60) | GI50 (SF-295) | GI50 (NCI-H522) | GI50 (OVCAR-8) | GI50 (SF-268)
CCCCN1CSC(=S)N(Cc2ccccc2)C1 | 23.2 µM (inactive) | 66.4 µM (inactive) | > 68.5 µM (inactive) | 30 µM (inactive) | 36.8 µM (inactive) | > 100 µM (inactive) | 58.2 | 82.2 µM (inactive) | > 100 µM (inactive) | 24.9 µM (inactive) | 31.9 µM (inactive) | 36.9 µM (inactive) | > 100 µM (inactive) | 48 µM (inactive) | 33.7 µM (inactive) | 3.56 µM (inactive) | 48.1 µM (inactive) | 23.9 µM (inactive) | 66.4 µM (inactive) | 49.7 µM (inactive)
Cc1nc2[nH]ncn2c(=O)c1CCO | > 10 µM (inactive) | > 10 µM (inactive) | > 10 µM (inactive) | > 10 µM (inactive) | > 10 µM (inactive) | > 10 µM (inactive) | > 10 | > 10 µM (inactive) | > 10 µM (inactive) | > 10 µM (inactive) | > 10 µM (inactive) | > 10 µM (inactive) | > 10 µM (inactive) | > 10 µM (inactive) | > 10 µM (inactive) | > 10 µM (inactive) |  | > 10 µM (inactive) | > 10 µM (inactive) | > 10 µM (inactive)
CN(NC(=O)c1cccs1)C1=NCCCN1 | > 100 µM (inactive) | > 100 µM (inactive) | > 100 µM (inactive) | 85.9 µM (inactive) | > 100 µM (inactive) | > 100 µM (inactive) | > 100 | > 100 µM (inactive) | > 100 µM (inactive) | > 100 µM (inactive) | > 100 µM (inactive) | > 100 µM (inactive) |  | > 100 µM (inactive) | > 100 µM (inactive) | > 100 µM (inactive) | > 100 µM (inactive) | > 100 µM (inactive) | > 100 µM (inactive) | > 100 µM (inactive)
O=c1[nH]c(=O)n(C/C=C/CBr)nc1Br | 14.2 µM (inactive) | 14.7 µM (inactive) | 13.9 µM (inactive) | 15.1 µM (inactive) | 14.2 µM (inactive) | 16.9 µM (inactive) | 14.5 | 15.9 µM (inactive) | 3.49 µM (inactive) | 4.08 µM (inactive) | 17.5 µM (inactive) | 1.81 µM (inactive) | 11.9 µM (inactive) | 15.8 µM (inactive) | 12 µM (inactive) | 5.87 µM (inactive) | 17.2 µM (inactive) | 4.33 µM (inactive) | 14.5 µM (inactive) | 14.1 µM (inactive)
O=C(O)c1ccccc1/C=C1\Cc2ccc3c(c2C1=O)CCCC3 | 34.4 µM (inactive) | 39.4 µM (inactive) | 28.6 µM (inactive) | 43.3 µM (inactive) | 41.8 µM (inactive) | 73.1 µM (inactive) | 37.1 | 31 µM (inactive) | 21.4 µM (inactive) | 26.9 µM (inactive) | 32 µM (inactive) | 40 µM (inactive) |  | 42.7 µM (inactive) | 27 µM (inactive) | 26.4 µM (inactive) | 31.6 µM (inactive) | 25.2 µM (inactive) | 68.7 µM (inactive) | 64 µM (inactive)
COc1cc(CCC(=O)O)c2cc3ccccc3cc2c1O | 18 µM (inactive) | 23.5 µM (inactive) | 32.6 µM (inactive) | 24.7 µM (inactive) | 18.4 µM (inactive) | 20.4 µM (inactive) | 18.2 | 18.7 µM (inactive) | 18.9 µM (inactive) | 12.4 µM (inactive) | 23.2 µM (inactive) | 21.5 µM (inactive) | 19.6 µM (inactive) | 22.1 µM (inactive) |  | 16.5 µM (inactive) | 20 µM (inactive) | 20.7 µM (inactive) | 16.3 µM (inactive) | 19.6 µM (inactive)
COc1ccc(CC2CCc3nc(N)nc(N)c3C2)cc1OC (configuration not stated) | 2.94 µM (inactive) |  | 12.1 µM (inactive) | 2.01 µM (inactive) | 0.83 µM (active) | 1.51 µM (inactive) | 0.104 | 0.11 µM (active) | 12.9 µM (inactive) | 13.1 µM (inactive) | 0.0411 µM (active) | 0.065 µM (active) | 2.29 µM (inactive) | 0.0481 µM (active) | 1.46 µM (inactive) | 14.8 µM (inactive) | 0.168 µM (active) | 0.489 µM (active) | 14.6 µM (inactive) | 0.173 µM (active)
CC(=O)/N=C1/N(/C=C2\C(=O)Oc3ccccc3C2=O)C(=O)/C(=C/c2ccc(NC(C)=O)cc2)N1C | > 100 µM (inactive) |  | > 100 µM (inactive) | > 100 µM (inactive) | > 100 µM (inactive) | > 100 µM (inactive) | > 100 | > 100 µM (inactive) | > 100 µM (inactive) | > 100 µM (inactive) | > 100 µM (inactive) | > 100 µM (inactive) | > 100 µM (inactive) | > 100 µM (inactive) | 84.9 µM (inactive) | > 100 µM (inactive) | > 100 µM (inactive) | 47.9 µM (inactive) | > 100 µM (inactive) | > 100 µM (inactive)
CCOC1CC(=O)c2c(Br)sc(Br)c21 (configuration not stated) | 19.7 µM (inactive) | 23.8 µM (inactive) |  | 21.7 µM (inactive) | 23.1 µM (inactive) | 23.7 µM (inactive) | 18 | 15.5 µM (inactive) | 19.5 µM (inactive) | 17.9 µM (inactive) | 20.7 µM (inactive) | 19.5 µM (inactive) | 17.3 µM (inactive) | 29.2 µM (inactive) | 19.1 µM (inactive) | 20.4 µM (inactive) | 27.9 µM (inactive) | 28.5 µM (inactive) | 17.5 µM (inactive) | 28.6 µM (inactive)
Cc1ccc(S(=O)(=O)n2cncc2CO)cc1 | > 100 µM (inactive) | > 100 µM (inactive) | > 100 µM (inactive) | > 100 µM (inactive) | > 100 µM (inactive) | > 100 µM (inactive) | > 100 | > 100 µM (inactive) | > 100 µM (inactive) | > 100 µM (inactive) | > 100 µM (inactive) | > 100 µM (inactive) | > 100 µM (inactive) | > 100 µM (inactive) | > 100 µM (inactive) | > 100 µM (inactive) | > 100 µM (inactive) | > 100 µM (inactive) | > 100 µM (inactive) | > 100 µM (inactive)
COc1cccc(/C=C/C(=O)N2CC(CCl)c3c2cc(N)c2ccccc32)c1 (configuration not stated) | 0.0146 µM (active) | 0.0059 µM (active) | 0.0137 µM (active) | 0.0142 µM (active) | < 0.01 µM (active) | 0.00804 µM (active) | 0.034 |  | 0.0039 µM (active) | 0.0507 µM (active) | 0.000115 µM (active) | 0.000548 µM (active) | 0.000566 µM (active) | 0.00153 µM (active) | 0.00237 µM (active) | < 0.01 µM (active) | 0.00114 µM (active) | 0.00045 µM (active) | 0.00109 µM (active) | 0.000693 µM (active)
